Test results as given in ChEMBL document CHEMBL1134207, “Synthesis and antiviral activity of novel D- and L-2'-azido-2',3'-dideoxyribofuranosyl-4'-thiopyrimidines and purines” (Bioorg Med Chem Lett, 2001).
Values after ≈ are worked out from the molar mass of the structure shown. Active and inactive are the calls of the source. No cut-off for these calls is given here.

Assays:
Type in all cases: functional, organism-based
[1] = system: Human immunodeficiency virus 1; assay: Tested for antiviral activity against HIV-1 in MT-4 cells; conditions: MT4
[2] = system: Human alphaherpesvirus 2; assay: Tested for antiviral activity against HSV-2 in CCL 81 cells
[3] = system: Human betaherpesvirus 5; assay: Tested for antiviral activity against HCMV in […] cells
[4] = system: Human alphaherpesvirus 1; assay: Tested for antiviral activity against HSV-1 in CCL 81 cells
[5] = system: Human betaherpesvirus 5; assay: Tested for antiviral activity against HCMV in AD169 cell line; conditions: Human betaherpesvirus 5, AD169
[6] = system: Human betaherpesvirus 5; assay: Tested for antiviral activity against HCMV in Davis cell line; conditions: Human betaherpesvirus 5, Davis

Structure (SMILES)	Activity [1]	Activity [2]	Activity [3]	Activity [4]	EC50 [5] [µg/mL]	EC50 [6] [µg/mL]
[N-]=[N+]=N[C@H]1C[C@H](CO)S[C@@H]1n1cnc2c(Cl)ncnc21	inactive	inactive	Significant activity	inactive		
Cc1cn([C@@H]2S[C@@H](CO)C[C@@H]2N=[N+]=[N-])c(=O)[nH]c1=O	inactive	inactive	Significant activity	inactive		
[N-]=[N+]=N[C@H]1C[C@H](COC(=O)c2ccccc2)S[C@H]1n1ccc(=O)n(C(=O)c2ccccc2)c1=O	inactive	inactive	Significant activity	inactive		
[N-]=[N+]=N[C@H]1C[C@H](CO)S[C@H]1n1ccc(N)nc1=O	inactive	inactive	Significant activity	inactive		
CC(=O)OC1S[C@@H](CO[Si](c2ccccc2)(c2ccccc2)C(C)(C)C)C[C@@H]1N=[N+]=[N-] (stereo partly drawn)	inactive	inactive	inactive	inactive		
[N-]=[N+]=N[C@H]1C[C@H](CO)S[C@@H]1n1cnc2c(O)ncnc21	inactive	inactive	Significant activity	inactive		
[N-]=[N+]=N[C@H]1C[C@H](CO)S[C@@H]1n1ccc(=O)[nH]c1=O	inactive	inactive	Significant activity	inactive		
[N-]=[N+]=N[C@H]1C[C@H](CO)S[C@H]1n1cnc2c(N)ncnc21	inactive	inactive	Significant activity	inactive		
Cc1cn([C@H]2S[C@@H](CO)C[C@@H]2N=[N+]=[N-])c(=O)[nH]c1=O	inactive	inactive	Significant activity	inactive		
Nc1nc2c(ncn2COC(CO)CO)c(=O)[nH]1 [GANCICLOVIR]					0.98 (≈ 3.84 µM)	4.07 (≈ 15.9 µM)
CNc1ncnc2c1ncn2[C@@H]1S[C@H](CO)C[C@H]1N=[N+]=[N-]					26.1 (≈ 85.2 µM)	90.2 (≈ 294 µM)
CC(C)(C)[Si](OC[C@H]1C[C@H](N=[N+]=[N-])[C@H](n2ccc(NC(=O)c3ccccc3)nc2=O)S1)(c1ccccc1)c1ccccc1	inactive	inactive	Significant activity	inactive		
[N-]=[N+]=N[C@@H]1C[C@@H](CO)S[C@@H]1n1cnc2c(Cl)ncnc21	inactive	inactive	Significant activity	inactive		
[N-]=[N+]=N[C@@H]1C[C@@H](CO)S[C@H]1n1cnc2c(Cl)ncnc21	inactive	inactive	Significant activity	inactive		
CNc1ncnc2c1ncn2[C@@H]1S[C@@H](CO)C[C@@H]1N=[N+]=[N-]	inactive	inactive	Significant activity	inactive		
[N-]=[N+]=N[C@H]1C[C@H](CO)S[C@@H]1n1ccc(N)nc1=O	inactive	inactive	Significant activity	inactive		
[N-]=[N+]=N[C@@H]1C[C@@H](CO)S[C@H]1n1cnc2c(N)ncnc21	inactive	inactive	Significant activity	inactive		
[N-]=[N+]=N[C@H]1C[C@H](CO)S[C@H]1n1ccc(=O)[nH]c1=O	inactive	inactive	Significant activity	inactive		
[N-]=[N+]=N[C@H]1C[C@H](CO)S[C@H]1n1cnc2c(Cl)ncnc21	inactive	inactive	Significant activity	inactive		
CNc1ncnc2c1ncn2[C@H]1S[C@@H](CO)C[C@@H]1N=[N+]=[N-]	inactive	inactive	Significant activity	inactive		
[N-]=[N+]=N[C@H]1C[C@H](CO)S[C@@H]1n1cnc2c(N)ncnc21	inactive	inactive	Significant activity	inactive		
[N-]=[N+]=N[C@@H]1C[C@@H](CO)S[C@@H]1n1cnc2c(N)ncnc21	inactive	inactive	Significant activity	inactive		
CNc1ncnc2c1ncn2[C@H]1S[C@H](CO)C[C@H]1N=[N+]=[N-]					19.1 (≈ 62.5 µM)	25.8 (≈ 84.2 µM)
CC(C)(C)[Si](OC[C@H]1C[C@H](N=[N+]=[N-])[C@@H](n2ccc(NC(=O)c3ccccc3)nc2=O)S1)(c1ccccc1)c1ccccc1	inactive	inactive	Significant activity	inactive		
[N-]=[N+]=N[C@H]1C[C@H](CO)S[C@H]1n1cnc2c(O)ncnc21	inactive	inactive	Significant activity	inactive		
[N-]=[N+]=N[C@H]1C[C@H](COC(=O)c2ccccc2)S[C@@H]1n1ccc(=O)n(C(=O)c2ccccc2)c1=O	inactive	inactive	Significant activity	inactive		
